Values of other authors in US6902746B2, “Oral pharmaceutical compositions containing non-steroidal anti-inflammatory drugs and method for preparing the same” (Yung Shin Pharmaceutical Industrial Co., Ltd., priority 2002, dated 2005).
Each block holds one compound with its values, some of them ahead of it.

Tests used:
[1] = system: M.K. and δ opioid receptors
[2] = animal studies; fraction of the effect of ketorolac tromethamine
[3] = animal studies; fraction of the effect of ketorolac tromethamine; remark: listed apart in the source
platelet aggregation = conditions: in vitro; fraction of the activity of ketorolac tromethamine
[4] = in vivo

- binding to opioid receptors [1]: does not bind
Compound: O=C(c1ccccc1)c1ccc2n1CCC2C(=O)O (stereo not shown) [ketorolac]

Compound: O=C(c1ccc(O)cc1)c1ccc2n1CCC2C(=O)O (stereo not shown) [p-hydroxyketorolac]
- analgesic effect relative to ketorolac tromethamine [2]: 1/100
- anti-inflammatory effect relative to ketorolac tromethamine [3]: less than ⅕
- anti-platelet aggregation activity relative to ketorolac tromethamine (platelet aggregation): 1/25

- plasma half-lives ([4]; human): markedly prolonged
- total clearance ([4]; human): decreased
- administered drug eliminated in the urine [4]: about 75%
- administered drug, in its original form, found in the feces [4]: About 6%
- bound to plasma proteins [4]: about 99%
- mean elimination half-live [4]: 5.3 h
- mean volume of distribution at steady state [4]: 0.11 L/kg
- mean volume of distribution during the elimination phase [4]: 0.17 to 0.25 L/kg
- absorption in the presence of antacids ([4]; po): not affected
Compound: (±)-5-benzoyl-2,3-dihydro-1H-pyrrolizine-1-carboxylic acid 2-amino-2-(hydroxymethyl)-1,3-propanediol [Ketorolac tromethamine]
